Patent US8452543B2, “High throughput screening for antimicrobial dosing regimens” (priority 2005, dated 2013)
Read-outs that look alike come from different tables or passages of the source.

Columns and labels:
in vivo = assay: in vivo
Experimental: In vivo meropenem concentrations in mouse serum were determined by a microbioassay utilizing Escherichia coli ATCC 25922 as the reference organism. The meropenem standard solutions ranged from 0.5 to 128 μg/ml in mouse serum.
Female Swiss-Webster mice (22-26 g) were used; all mice were cared for in accordance to the highest humane and ethical standards, as approved by the Institutional Animal Care and Use Committee (IACUC). The animals were housed in isolation boxes to decrease the risk of infection from extraneous pathogens. They received food and water ad libitum. The animals were rendered neutropenic by 2 intra-peritoneal injections of cyclophosphamide (Sigma, St. Louis, Mo.) 150 mg/kg on day −4 and 100 mg/kg on day −1 prior to infection; previous studies have shown that this regimen would produce neutropenia for 5 days (13, 16). Transient nephrotoxicity was induced by 1 intra-peritoneal injection of uranyl nitrate (5 mg/kg on day −2), which has been previously shown to produce a significant stable reduction in renal function for at least 7 days (21).
The bacterial inoculum was prepared and inoculated into the animals as outlined below. […] Six mice were sacrificed by CO2 asphyxiation at 0.5, 1, 1.5, 2, and 3 hours after injection. Blood samples were collected via cardiac puncture. The blood was allowed to clot on ice and centrifuged; meropenem concentrations in these serum samples were assayed by a validated method as described below. The serum concentration profiles of all the animals were analyzed by linear regression of the logarithmic-transformed data.

P. aeruginosa ATCC 27853 = assay: Time-kill studies and growth dynamics model, meropenem; type: cell-based, Pseudomonas aeruginosa; conditions: for EC50: read-out: Ck50 (the source's name)
Experimental: Time-kill studies were conducted with different and escalating meropenem concentrations. […] An overnight culture of the isolate was diluted 30-fold with pre-warmed Ca-MHB and incubated further at 35 8 C until reaching late log phase growth. The bacterial suspension was diluted with Ca-MHB accordingly based on absorbance at 630 nm; 15 mL of the suspension was transferred to 50 mL sterile conical flasks each containing 1 mL of an antimicrobial agent solution at 16 the target concentration. The final concentration of the bacterial suspension in each flask was 1×10^8 cfu/mL. The high inoculum used was to simulate the bacterial load in severe infection, and to allow resistant sub-population(s) to be present at baseline. The experiment was conducted for 24 h in a shaker water bath set at 35 8 C. Serial samples in duplicate were obtained from each flask over 24 h, at 0 (baseline), 2, 4, 8, 12, and 24 h, to characterize the effect of various meropenem concentrations on the total bacterial population. Prior to culturing the bacteria quantitatively, the bacterial samples (0.5 mL) were centrifuged at 10000 g for 15 min, and reconstituted with sterile normal saline to their original volumes in order to minimize drug carry-over effect. Total bacterial populations were quantified by spiral plating 10 serial dilutions of the samples ([…]) onto MHA plates. The media plates were incubated in a humidified incubator (35 8 C) for 18-24 h, and the bacterial density from each sample was determined by CASBA-4 colony scanner/software (Spiral Biotech, Bethesda, Md., USA). The theoretical lower limit of detection was 400 cfu/mL.
The time courses of bacterial burden under different drug exposures is described using a mathematical model. The population balance for a bacterial population is determined by: Rate of change of bacterial population over time=intrinsic growth rate−kill rate by antimicrobial agent or
In contrast to the conventional approach in which the final observed effects are modelled, information over time was utilized to develop a dynamic model system that would capture bacterial growth/killing rates. The starting point was a mathematical model describing the time course of bacterial burden [biological response, N(t)] under the influence of various antimicrobial agent concentrations C(t). The rate of change of bacteria over time was expressed as the difference between the intrinsic bacterial growth rate and the kill rate provided by the antimicrobial agent (Eq. 35). Based on previous studies, a linear bacterial growth rate was adopted. Additional model parameters were used to account for other physiological phenomena such as contact inhibition (using a maximum population size) and non-linear (sigmoidal) kill rate to account for target site saturation. Regrowth was attributed to adaptation, which was explicitly modelled as increase in the concentration necessary to achieve 50% maximal kill rate (C50k), using a saturable function of antimicrobial agent selective pressure (both meropenem concentration and time) (Eq. 36).
The experimental data derived from the time-kill studies were analysed by population analysis, using the non-parametric adaptive grid (NPAG) program (28). The killing profile observed with each meropenem concentration was input as a subject in the population analysis. The search algorithm sought the combination of parameter values and their distributions that would have the highest likelihood of explaining the observations made with all the meropenem concentrations in a single step (as opposed to fixing some parameter estimates sequentially while estimating the others). The explicit assumption was made that overall observation variance was proportional to variance of the measurement, i.e. quantitative cultures. The proportionality constant g was optimized with each cycle of the analysis.

[1] = female, Swiss-Webster, mouse, in vivo, 400 mg/kg
[2] = Mean of the parameter estimates

## C[C@@H](O)[C@H]1C(=O)N2C(C(=O)O)=C(S[C@@H]3CN[C@H](C(=O)N(C)C)C3)[C@H](C)[C@H]12 [meropenem]
In vivo; 400 mg/kg, OprD− mutant
  % T>MIC: 26%
In vivo; 400 mg/kg, wild-type isolate
  % T>MIC: 33%
In vivo; [1]
  Cmax: 354 µg/mL
  half-life: 19 min
In vivo; lower doses (50 mg/kg and 100 mg/kg)
  serum concentration: did not result a detectable serum meropenem concentration beyond 1 hour
P. aeruginosa ATCC 27853; 0.25 MIC and 1 MIC, between 12 and 24 h
  regrowth: Regrowth was observed
P. aeruginosa ATCC 27853; [2]
  Kg: 4.71 h − 1
  H: 2.83
  β: 5.85
  τ: 0.0095 L/mg/h
P. aeruginosa ATCC 27853; meropenem Concn 0.25 mg/L
  Kg: 9.60 h − 1
  H: 3.81
  β: 3.79
  τ: 0.021 L/mg/h
P. aeruginosa ATCC 27853; meropenem Concn 1 mg/L
  Kg: 4.08 h − 1
  H: 1.48
  β: 6.64
  τ: 0.011 L/mg/h
P. aeruginosa ATCC 27853; meropenem Concn 4 mg/L
  Kg: 3.12 h − 1
  H: 1.67
  β: 4.48
  τ: 0.0069 L/mg/h
P. aeruginosa ATCC 27853; meropenem Concn 16 mg/L
  Kg: 3.41 h − 1
  H: 7.74
  β: 4.85
  τ: 0.0051 L/mg/h
P. aeruginosa ATCC 27853; meropenem Concn 64 mg/L
  Kg: 3.95 h − 1
  H: 0.79
  β: 8.70
  τ: 0.0014 L/mg/h
P. aeruginosa ATCC 27853; Pseudomonas aeruginosa, ATCC27853, 24 h, validation time-kill, meropenem at 2 MIC, read-out: MIC of the entire bacterial population at 24 h
  MIC: > 1 µg/mL
P. aeruginosa ATCC 27853; Pseudomonas aeruginosa, ATCC27853, Mean of the parameter estimates
  EC50: 2.29 µg/mL
P. aeruginosa ATCC 27853; Pseudomonas aeruginosa, ATCC27853, meropenem Concn 0.25 mg/L
  EC50: 0.44 µg/mL
P. aeruginosa ATCC 27853; Pseudomonas aeruginosa, ATCC27853, meropenem Concn 1 mg/L
  EC50: 3.53 µg/mL
P. aeruginosa ATCC 27853; Pseudomonas aeruginosa, ATCC27853, meropenem Concn 4 mg/L
  EC50: 0.74 µg/mL
P. aeruginosa ATCC 27853; Pseudomonas aeruginosa, ATCC27853, meropenem Concn 16 mg/L
  EC50: 2.61 µg/mL
P. aeruginosa ATCC 27853; Pseudomonas aeruginosa, ATCC27853, meropenem Concn 64 mg/L
  EC50: 2.9 µg/mL
P. aeruginosa ATCC 27853; at baseline
  concentration necessary to attain 80% maximal kill rate (C80k): 3.8 mg/L
  concentration necessary to attain 90% maximal kill rate (C90k): 5.0 mg/L
P. aeruginosa ATCC 27853; meropenem concentrations 4 MIC (4 mg/L)
  drop in bacterial burden at 24 h: > 2 log
P. aeruginosa ATCC 27853; time-kill
  concentration at which initial killing appeared maximized: 4 MIC
  killing profile: partially concentration-dependent
P. aeruginosa ATCC 27853; validation time-kill, meropenem at 2 MIC
  regrowth: regrowth
P. aeruginosa ATCC 27853; validation time-kill, meropenem at 32 MIC
  regrowth: no regrowth was observed
